Test results taken from patent publication US10975037B2 (priority 2018, dated 2021).
Read-outs that look alike come from different tables or passages of the source.

What was measured:
[1] = biological target: human RORγt ligand binding domain (RORγt LBD) (Homo sapiens (Human), UniProt P51449); assay: RORγt ThermoFluor® assay (thermal shift binding)
Procedure, shortened: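 Thermal shift with 0.065 mg/mL RORγt LBD and 60 μM 1,8-ANS in 100 mM Hepes pH 7.0, 10 mM NaCl, 2.5 mM GSH, 0.002% Tween-20.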

[2] = biological target: full-length human RORγt (Homo sapiens (Human), UniProt P51449); assay: RORγt (full-length human) reporter assay, conditions A or B, HEK293T cells; type: cell-based; conditions: for inhibition at 6 µM: read-out: RORγt (FL) Reporter Assay A or B, % inhibition @ 6 μM, 6 μM compound concentration; for IC50: RORγt (FL) Reporter Assay A or B, IC50, HEK293T cells; for inhibition at 3 µM: 3 μM compound concentration (footnote *)
Procedure, shortened: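 After 16–20 h, dual firefly/Renilla luciferase luminescence was read. Firefly signal was normalized to DMSO and saturating reference compound, then to Renilla, and fitted for IC50; % inhibition is versus DMSO.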

[3] = read-out: ThermoFluor® Assay, Kd
[4] = HEK-293T, read-out: RORγt (FL) Reporter Assay A or B, % inhibition

Sequence of full-length human RORγt (P51449 other isoform, or with tags, fused parts or gaps): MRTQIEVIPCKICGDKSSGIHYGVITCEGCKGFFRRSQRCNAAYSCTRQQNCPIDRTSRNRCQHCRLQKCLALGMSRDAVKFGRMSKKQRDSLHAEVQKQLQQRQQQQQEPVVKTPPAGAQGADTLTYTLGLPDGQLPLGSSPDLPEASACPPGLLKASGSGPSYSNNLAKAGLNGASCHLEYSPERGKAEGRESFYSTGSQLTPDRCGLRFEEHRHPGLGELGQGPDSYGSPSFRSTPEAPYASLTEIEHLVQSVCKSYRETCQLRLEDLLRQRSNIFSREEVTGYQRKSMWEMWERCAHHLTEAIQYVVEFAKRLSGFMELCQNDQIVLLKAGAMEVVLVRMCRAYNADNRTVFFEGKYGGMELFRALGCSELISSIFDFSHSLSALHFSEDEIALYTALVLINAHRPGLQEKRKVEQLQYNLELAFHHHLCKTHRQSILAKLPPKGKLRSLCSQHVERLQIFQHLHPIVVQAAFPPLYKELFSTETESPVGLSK
Sequence of human RORγt ligand binding domain (RORγt LBD) (P51449 other isoform, or with tags, fused parts or gaps): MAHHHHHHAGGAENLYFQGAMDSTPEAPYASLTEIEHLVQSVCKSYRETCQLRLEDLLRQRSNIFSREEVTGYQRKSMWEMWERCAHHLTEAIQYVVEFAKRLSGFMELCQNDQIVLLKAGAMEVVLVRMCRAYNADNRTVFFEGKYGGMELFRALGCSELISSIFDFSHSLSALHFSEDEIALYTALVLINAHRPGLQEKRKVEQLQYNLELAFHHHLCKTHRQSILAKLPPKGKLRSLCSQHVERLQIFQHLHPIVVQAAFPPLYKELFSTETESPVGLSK

| SMILES | Kd [1, 3] | IC50 [2] | other results |
| --- | --- | --- | --- |
| COc1cc(N[C@H](C)C(F)(F)F)ccc1-c1c(Cl)c(C(=O)NC[C@H]2CC[C@H](S(C)(=O)=O)CC2)nn1C(C)(C)C [Example 26, 1-(tert-Butyl)-4-chloro-5-(2-methoxy-4-(((R)-1,1,1-trifluoropropan-2-yl)amino)phenyl)-N-(((1r,4R)-4-(methylsulfonyl)cyclohexyl)methyl)-1H-pyrazole-3-carboxamide] | 3.9 nM | 29 nM | inhibition at 6 µM ([2]; HEK-293T): 108% |
| CCn1nc(C(=O)NC[C@@H]2CC[C@@H](S(C)(=O)=O)C[C@H]2O)c(Cl)c1-c1ccc(CC(C)(C)C(F)(F)F)cc1OC(F)F (single isomer, unassigned) [Example 22, 4-Chloro-5-(2-(difluoromethoxy)-4-(3,3,3-trifluoro-2,2-dimethylpropyl)phenyl)-1-ethyl-N-(((1S*,2R*,4R*)-2-hydroxy-4-(methylsulfonyl)cyclohexyl)methyl)-1H-pyrazole-3-carboxamide] |  | 4.2 nM | Kd ([1]; ThermoFluor® Assay, Kd): 0.44 nM; inhibition at 1 µM ([2]; HEK-293T, 1 μM compound concentration (footnote ***), read-out: RORγt (FL) Reporter Assay A or B, % inhibition): 100% |
| CCn1nc(C(=O)NC[C@H]2CC[C@H](S(C)(=O)=O)CC2)c(C)c1-c1ccc(CCCC(F)(F)F)cc1OC [Example 82, 1-Ethyl-5-(2-methoxy-4-(4,4,4-trifluorobutyl)phenyl)-4-methyl-N-(((1r,4r)-4-(methylsulfonyl)cyclohexyl)methyl)-1H-pyrazole-3-carboxamide] | 4.1 nM | 14 nM | inhibition at 0.67 µM ([2]; HEK-293T, 0.67 μM compound concentration (footnote ****), read-out: RORγt (FL) Reporter Assay A or B, % inhibition): 87% |

More lines, main results first:

| Kd [1, 3] | IC50 [2] | SMILES | other results |
| --- | --- | --- | --- |
| 7.7 nM | 34 nM | COCCn1nc(C(=O)NC[C@]2(O)CC[C@@H](S(C)(=O)=O)CC2)c(Cl)c1-c1ccc(CC(C)(C)C(F)(F)F)cc1OC [Example 186, 4-Chloro-N-(((1s,4s)-1-hydroxy-4-(methylsulfonyl)cyclohexyl)methyl)-5-(2-methoxy-4-(3,3,3-trifluoro-2,2-dimethylpropyl)phenyl)-1-(2-methoxyethyl)-1H-pyrazole-3-carboxamide] | inhibition at 6 µM ([2]; HEK-293T): 96% |
| 5.4 nM | 29 nM | CCOc1cc(N[C@H](C)C(F)(F)F)ccc1-c1c(Cl)c(C(=O)NC[C@H]2CC[C@H](S(C)(=O)=O)CC2)nn1CC [Example 205, 4-Chloro-5-(2-ethoxy-4-(((R)-1,1,1-trifluoropropan-2-yl)amino)phenyl)-1-ethyl-N-(((1r,4R)-4-(methylsulfonyl)cyclohexyl)methyl)-1H-pyrazole-3-carboxamide] | inhibition at 2 µM [2, 4]: 104% |
| 3.1 nM | 9 nM | CC(C)(Cc1ccc(-c2c(Cl)c(C(=O)NC[C@]3(O)CC[C@@H](S(C)(=O)=O)CC3)nn2CCCC#N)c(OC(F)F)c1)C(F)(F)F [Example 229, 4-Chloro-1-(3-cyanopropyl)-5-(2-(difluoromethoxy)-4-(3,3,3-trifluoro-2,2-dimethylpropyl)phenyl)-N-(((1s,4s)-1-hydroxy-4-(methylsulfonyl)cyclohexyl)methyl)-1H-pyrazole-3-carboxamide] | inhibition at 3 µM [2, 4]: 78% |
| 16 nM | 3.4 nM | Cn1nc(C(=O)NC[C@]2(O)CC[C@@H](S(C)(=O)=O)CC2)c(Cl)c1-c1ccc(CCCC(F)(F)F)cc1OC(F)F [Example 158, 4-Chloro-5-(2-(difluoromethoxy)-4-(4,4,4-trifluorobutyl)phenyl)-N-(((1s,4s)-1-hydroxy-4-(methylsulfonyl)cyclohexyl)methyl)-1-methyl-1H-pyrazole-3-carboxamide] | inhibition at 3 µM [2, 4]: 111% |
| 3.8 nM | 28 nM | CCn1nc(C(=O)NC[C@H]2CC[C@H](S(C)(=O)=O)CC2)c(Cl)c1-c1ccc(N[C@H](C)C(F)(F)F)cc1C(F)(F)F [Example 172, 4-Chloro-1-ethyl-N-(((1r,4R)-4-(methylsulfonyl)cyclohexyl)methyl)-5-(2-(trifluoromethyl)-4-(((R)-1,1,1-trifluoropropan-2-yl)amino)phenyl)-1H-pyrazole-3-carboxamide] | inhibition at 2 µM ([2]; HEK-293T, 2 μM compound concentration, read-out: RORγt (FL) Reporter Assay A or B, % inhibition): 100% |
